Where “and” joins values, the source holds several entries; their conditions need not be identical. Equal entries are not always repeated. Where two headings read alike, the source gives them in different places. Marks after values point to notes of the source that are not given here.
How the values were obtained:
[1] = Intravenous and oral dosing pharmacokinetic screen, plasma concentration by LC/MS/MS; parameters: species or system C57BL/6 mice; details: male, C57BL/6, mouse, in vivo
Procedure: Tucaresol, Compound B02, Compound C01, Compound C02-1, and Compound C02 were dosed once, by IV bolus (3 mg/kg in 20% hydroxyprophyl-13-cyclodextrin with 1 eq NaOH) or PO (10 mg/kg in 1% carboxymethylcellulose/0.1% tween-80 in water), to non-fasted male C57BL/6 mice. Animals were bled from the dorsal metatarsal vein (from the heart for 24 hour time point) for K2-EDTA plasma 0.083 (for IV only), 0.25, 0.5, 1, 2, 4, 8, and 24 hours after dosing. The plasma concentration of the dosed tucaresol or compound were measured by LC/MS/MS (I-CMS-8060 instrument for MS). PK parameters were then calculated with WinNonlin 6.1. For Compounds C01, CO2 and CO2-1, stability in C57BL/6 K2EDTA plasma was also evaluated at 22° C. over 1 hour by utilizing LC.

[2] = Pharmacokinetics of tucaresol after a single dose in healthy subjects
[3] = iv, 3 mg/kg, Tucaresol concentration
[4] = iv, 3 mg/kg, Tucaresol concentration, Mean
[5] = po, 10 mg/kg, Tucaresol concentration
[6] = po, 10 mg/kg, Tucaresol concentration, Mean
[7] = plasma, single dose 400 mg, single subjects
[8] = plasma, single dose 800 mg, single subjects
[9] = plasma, single dose 1200 mg, single subjects
[10] = plasma, single dose 2000 mg, single subjects
[11] = plasma, single dose 2800 mg, single subjects
[12] = plasma, single dose 3600 mg, single subjects

For `O=Cc1c(O)cccc1OCc1ccc(C(=O)O)cc1` [Tucaresol], the AUClast/D [1] was 825 ng·h/mL per mg/kg, the F [1] was 75.0% and the T1/2 [1] was 4.67 h. The Tmax [1] was 0.250 h, the concentration at 0.083 h [1, 3] was 1360 ng/mL and the concentration at 0.25 h [1, 3] was 1240 ng/mL. The concentration at 0.5 h [1, 3] was 972 ng/mL, the concentration at 1 h [1, 3] was 623 ng/mL and the concentration at 2 h [1, 3] was 473 ng/mL. For the same compound, the concentration at 4 h [1, 3] was 122 ng/mL, the concentration at 8 h [1, 3] was 73.6 ng/mL and the concentration at 24 h [1, 3] was 12 ng/mL. The concentration at 0.083 h [1, 4] was 1890 ng/mL, the concentration at 0.25 h [1, 4] was 1330 ng/mL and the concentration at 0.5 h [1, 4] was 985 ng/mL. The concentration at 1 h [1, 4] was 707 ng/mL, the concentration at 2 h [1, 4] was 421 ng/mL and the concentration at 4 h [1, 4] was 115 ng/mL. For the same compound, the concentration at 8 h [1, 4] was 73.4 ng/mL, the concentration at 24 h [1, 4] was 9.5 ng/mL and the Tucaresol concentration ([1]; po, 10 mg/kg, 8 h) was 164* ng/mL. The concentration at 0.25 h [1, 5] was 2930 ng/mL, the concentration at 0.5 h [1, 5] was 2770 ng/mL and the concentration at 1 h [1, 5] was 1870 ng/mL. It also gave a concentration at 2 h [1, 5] of 822 ng/mL, a concentration at 4 h [1, 5] of 603 ng/mL and a concentration at 8 h [1, 5] of 185 ng/mL. It also gave a concentration at 24 h [1, 5] of 26.3 ng/mL, a concentration at 0.25 h [1, 6] of 3040 ng/mL and a concentration at 0.5 h [1, 6] of 2410 ng/mL. It also gave a concentration at 1 h [1, 6] of 1750 ng/mL, a concentration at 2 h [1, 6] of 881 ng/mL and a concentration at 4 h [1, 6] of 614 ng/mL. The concentration at 8 h [1, 6] was 190 ng/mL, the concentration at 24 h [1, 6] was 26 ng/mL and the concentration at 8 h ([1]; Tucaresol PO 10 mg/kg, 8 h, single mice, read-out: Tucaresol concentration) was 222 ng/mL. The half-life ([2]; human, in vivo, 2000 mg) was 222 h, the Tmax ([2]; human, in vivo, 2800 mg) was 7.5 h and the half-life ([2]; human, in vivo, 2800 mg) was 223 h. For the same compound, the Cmax ([2]; human, plasma, 200 mg, Cmax, single dose 200 mg, single subjects) was 9900 ng/mL, the Tmax ([2]; human, plasma, 200 mg, tmax, single dose 200 mg, single subjects) was 5 h and the AUC ([2]; human, plasma, 400 mg, AUC, single dose 400 mg, single subjects) was 2830 µg·h/mL. It also gave a Cmax ([2]; human, plasma, 400 mg, Cmax, single dose 400 mg, single subjects) of 16600 ng/mL, a half-life ([2]; human, plasma, 400 mg, t1/2,z, single dose 400 mg, single subjects) of 133 h and a Tmax ([2]; human, plasma, 400 mg, tmax, single dose 400 mg, single subjects) of 4.03 h. It also gave an AUC ([2]; human, plasma, 800 mg, AUC, single dose 800 mg, single subjects) of 4890 µg·h/mL, a Cmax ([2]; human, plasma, 800 mg, Cmax, single dose 800 mg, single subjects) of 28300 ng/mL and a half-life ([2]; human, plasma, 800 mg, t1/2,z, single dose 800 mg, single subjects) of 134 h. The Tmax ([2]; human, plasma, 800 mg, tmax, single dose 800 mg, single subjects) was 4 h, the AUC ([2]; human, plasma, 1200 mg, AUC, Mean, single dose 1200 mg) was 8860 µg·h/mL and the Cmax ([2]; human, plasma, 1200 mg, Cmax, Mean, single dose 1200 mg) was 38400 ng/mL. The Cmax ([2]; human, plasma, 1200 mg, Cmax, single dose 1200 mg, single subjects) was 40400 ng/mL, the half-life ([2]; human, plasma, 1200 mg, t1/2,z, Mean, single dose 1200 mg) was 195 h and the Tmax ([2]; human, plasma, 1200 mg, tmax, Mean, single dose 1200 mg) was 6.5 h. The Tmax ([2]; human, plasma, 1200 mg, tmax, single dose 1200 mg, single subjects) was 8 h, the AUC ([2]; human, plasma, 2000 mg, AUC, Mean, single dose 2000 mg) was 14800 µg·h/mL and the AUC ([2]; human, plasma, 2000 mg, AUC, single dose 2000 mg, single subjects) was 16300 µg·h/mL. The Cmax ([2]; human, plasma, 2000 mg, Cmax, Mean, single dose 2000 mg) was 58600 ng/mL, the Cmax ([2]; human, plasma, 2000 mg, Cmax, single dose 2000 mg, single subjects) was 60800 ng/mL and the half-life ([2]; human, plasma, 2000 mg, t1/2,z, Mean, single dose 2000 mg) was 229 h. It also gave a half-life ([2]; human, plasma, 2000 mg, t1/2,z, single dose 2000 mg, single subjects) of 278 h, a Tmax ([2]; human, plasma, 2000 mg, tmax, Mean, single dose 2000 mg) of 5.5 h and a Tmax ([2]; human, plasma, 2000 mg, tmax, single dose 2000 mg, single subjects) of 6 h. The AUC ([2]; human, plasma, 2800 mg, AUC, Mean, single dose 2800 mg) was 16900 µg·h/mL, the AUC ([2]; human, plasma, 2800 mg, AUC, single dose 2800 mg, single subjects) was 12900 µg·h/mL and the Cmax ([2]; human, plasma, 2800 mg, Cmax, Mean, single dose 2800 mg) was 73700 ng/mL. For the same compound, the Cmax ([2]; human, plasma, 2800 mg, Cmax, single dose 2800 mg, single subjects) was 56600 ng/mL, the half-life ([2]; human, plasma, 2800 mg, t1/2,z, single dose 2800 mg, single subjects) was 232 h and the Tmax ([2]; human, plasma, 2800 mg, tmax, single dose 2800 mg, single subjects) was 6 h. The AUC ([2]; human, plasma, 3600 mg, AUC, Mean, single dose 3600 mg) was 26600 µg·h/mL, the AUC ([2]; human, plasma, 3600 mg, AUC, single dose 3600 mg, single subjects) was 25400 µg·h/mL and the Cmax ([2]; human, plasma, 3600 mg, Cmax, Mean, single dose 3600 mg) was 95800 ng/mL. For the same compound, the Cmax ([2]; human, plasma, 3600 mg, Cmax, single dose 3600 mg, single subjects) was 81700 ng/mL, the half-life ([2]; human, plasma, 3600 mg, t1/2,z, Mean, single dose 3600 mg) was 289 h and the half-life ([2]; human, plasma, 3600 mg, t1/2,z, single dose 3600 mg, single subjects) was 291 h. The Tmax ([2]; human, plasma, 3600 mg, tmax, Mean, single dose 3600 mg) was 10 h, the Tmax ([2]; human, plasma, 3600 mg, tmax, single dose 3600 mg, single subjects) was 6.08 h and the Cmax ([2]; plasma, single dose 200 mg, single subjects) was 11100 ng/mL. The AUC [2, 7] was 3562 µg·h/mL, the CL0 [2, 7] was 2.35 mL/min and 1.86 mL/min and the Cmax [2, 7] was 19600 ng/mL. For the same compound, the Tmax [2, 7] was 3.00 h, the “t1/2,z” value [2, 7] was 190 h and the AUC [2, 8] was 5759 µg·h/mL. The CL0 [2, 8] was 2.72 mL/min and 2.31 mL/min, the Cmax [2, 8] was 36500 ng/mL and the Tmax [2, 8] was 4.08 h. For the same compound, the “t1/2,z” value [2, 8] was 126 h, the “CL0, Mean” value ([2]; plasma, single dose 1200 mg) was 2.40 mL/min and the AUC [2, 9] was 12103 µg·h/mL and 9180 µg·h/mL and 5987 µg·h/mL and 8161 µg·h/mL. For the same compound, the CL0 [2, 9] was 1.65 mL/min and 2.17 mL/min and 3.33 mL/min and 2.44 mL/min, the Cmax [2, 9] was 40100 ng/mL and 39300 ng/mL and 33700 ng/mL and the “t1/2,z” value [2, 9] was 252 h and 192 h and 123 h and 215 h. For the same compound, the “CL0, Mean” value ([2]; plasma, single dose 2000 mg) was 2.27 mL/min, the AUC [2, 10] was 16487 µg·h/mL and 14010 µg·h/mL and 12455 µg·h/mL and the CL0 [2, 10] was 2.04 mL/min and 2.01 mL/min and 2.37 mL/min and 2.67 mL/min. The Cmax [2, 10] was 59300 ng/mL and 57100 ng/mL, the “t1/2,z” value [2, 10] was 207 h and 209 h and the “CL0, Mean” value ([2]; plasma, single dose 2800 mg) was 2.85 mL/min. For the same compound, the AUC [2, 11] was 20871 µg·h/mL and 15635 µg·h/mL and 18018 µg·h/mL, the CL0 [2, 11] was 3.61 mL/min and 2.23 mL/min and 2.97 mL/min and 2.58 mL/min and the Cmax [2, 11] was 87700 ng/mL and 91400 ng/mL and 59300 ng/mL. For the same compound, the Tmax [2, 11] was 12.00 h, the “t1/2,z” value [2, 11] was 240 h and 178 h and 241 h and the “CL0, Mean” value ([2]; plasma, single dose 3600 mg) was 2.26 mL/min. For the same compound, the AUC [2, 12] was 27818 µg·h/mL and 24131 µg·h/mL and 29116 µg·h/mL, the CL0 [2, 12] was 2.36 mL/min and 2.15 mL/min and 2.48 mL/min and 2.05 mL/min and the Cmax [2, 12] was 86300 ng/mL and 80300 ng/mL and 134700 ng/mL. The “t1/2,z” value [2, 12] was 329 h and 265 h and 268 h.
